Test results as given in publication PMC6384730, “Systematic Identification of Thiosemicarbazides for Inhibition of Toxoplasma gondii Growth In Vitro” (Molecules, 2019).
Converted amounts (≈) assume the structure as drawn. “And” between values parts separate entries of the source, which are not always exact repeats. Identical values can stand only once. Like-named read-outs stand apart in the source and are kept apart here.

Key:
L929 cells = assay: MTT cell viability (cytotoxicity) assay on L929 cells; type: cell-based, mouse; settings: L929 cells, 24 h exposure
Method: (§1) Cells were trypsinized twice a week, and seeded at density 1 × 10^6 per T25 cell culture flask, and incubated for 24-48 h at 37 °C and 10% CO2 to achieve a confluent monolayer. […] The final concentration of DMSO in compounds dilutions was not higher than 1.00%. […] Dilution of the all compounds 2-22 and drug were freshly prepared before the cells were exposed. […] The MTT assay was used according to international standards: ISO 10993-5:2009(E), Biological evaluation of medical devices, Part 5: Tests for in vitro cytotoxicity. […] Afterward, the culture medium in the plates was replaced by 100 μL of compounds and sulfadiazine suspension and the cells were exposed for 24 h. Then, 1 mg/mL of MTT solution in RPMI 1640 without phenol red was prepared and 50 μL of the solution was added to each well and incubated at 37 °C, 10% CO2 for 2 h. Mitochondrial dehydrogenases of viable cells reduced the yellowish water-soluble MTT to water-insoluble formazan crystals, which were solubilized with dimethyl sulfoxide (DMSO). The cell culture medium was aspirated cautiously, after which 150 μL DMSO was added to each well, the plates were gently mixed, then 25 μL 0.1 M glycine buffer (pH = 10.5) (Sigma) was added. Optical density was read on the ELISA reader (Multiskan EX, Labsystems, Vienna, VA, USA) at 570 nm. The results were expressed as the percentage of viability compared to untreated cells. All experiments were performed in triplicate. Moreover, cells were treated with 4.0-0.03% concentration of DMSO as a compounds solvent (data not shown).

T. gondii RH tachyzoites = assay: Influence on T. gondii proliferation ([3H]uracil incorporation) in infected Vero cells; type: cell-based, Toxoplasma gondii; settings: Toxoplasma gondii, Vero
Method: Vero cell line (African green monkey kidney) (ATCC® CCL-81™) were maintained in EMEM (EMEM/10%HIFBS/P/S) (Eagle’s Minimum Essential Medium—ATCC® 30-2003™) culture medium supplemented with 10% HIFBS (Heat-Inactivated (1 h in 56°C) Fetal Bovine Serum—ATCC), 100 U/mL penicillin, 100 μg/mL streptomycin. The cell line was trypsinized (using Trypsin-EDTA Solution, 1X ATCC® 30-2101™) twice a week, and seeded at density 1 × 10^6 per T25 cell culture flask (Falcon), and incubated for 24–48 h at 37 °C and 5 CO2 to achieve a confluent monolayer. The highly virulent RH strain of Toxoplasma gondii, haplogroup I (ATCC® PRA-310™) were maintained as tachyzoites according to the ATCC product sheet, in DMEM (Dulbecco’s Modified Eagle’s Medium—ATCC® 30-2002™) (DMEM/3%HIFBS/P/S—parasite culture medium) under condition 37 °C and 5 CO2 and passage twice per week.
The Vero cells were seeded on 96-well plates (1 × 10^5 cells/100 µL/well) in EMEM/10%HIFBS/P/S. After 24 h of incubation medium was removed and then T. gondii RH tachyzoites were added to the cell monolayers at density 1 × 10^5 cells/100 µL/well in DMEM/3%HIFBS/P/S. One hour later different compounds and sulfadiazine dilutions (100 µL/well) in parasite culture medium were added to the cell monolayers with T. gondii. After subsequent 24 h of incubation 1 µCi/well [5,6-^3H] uracil (Moravek Biochemicals Inc., Brea, CA, USA) was applied to each microculture for further 72 h. The amount of the isotope incorporated into the parasite nucleic acid pool, corresponding to the parasite growth, was measured by liquid scintillation counting using 1450 Microbeta Plus Liquid Scintillation Counter (Wallac Oy, Turku, Finland). The results were expressed as counts per minute (CPM) and transformed to the percentage of viability compared to untreated cells. All experiments were performed in triplicate.

Toxoplasma gondii = system: Toxoplasma gondii; set-up: method as in PMID 25010466; settings: previously reported; cited from earlier work
[1] = MTT cell viability (cytotoxicity) assay on L929 cells; type: cell-based, mouse; settings: mouse, L929 mouse fibroblast cells, 24 h, % of untreated cells; for viability at 24 h, 62.5 µg/mL: 62.50 µg/mL
Method: as §1

[2] = IC50 greater than 125 µg/mL (highest concentration tested), calculated by extrapolation of the curves (GraphPad Prism), read-out: IC50 (50% inhibition of T. gondii proliferation in vitro), extrapolated
[3] = RH tachyzoites in Vero cells, [3H]uracil incorporation, highest concentration tested 125 µg/mL, read-out: IC50 (50% inhibition of T. gondii proliferation in vitro)

SMILES	CC30 (concentration required for 30% cells proliferation inhibition) (L929 cells)	IC50 (T. gondii RH tachyzoites; [2])	IC50 against proliferation of Toxoplasma gondii (Toxoplasma gondii)	viability at 24 h, 3.91 µg/mL [1]	viability at 24 h, 7.81 µg/mL [1]	viability at 24 h, 15.63 µg/mL [1]	viability at 24 h, 31.25 µg/mL [1]	viability at 24 h, 62.5 µg/mL [1]	viability at 24 h, 125 µg/mL [1]	viability at 24 h, 250 µg/mL [1]	viability at 24 h, 500 µg/mL [1]	IC50 (T. gondii RH tachyzoites; [3])	melting point	fold more potent than sulfadiazine (Toxoplasma gondii)
Nc1ccc(S(=O)(=O)Nc2ncccn2)cc1 [Sulfadiazine, 4-amino-N-(2-pyrimidinyl)benzenesulfonamide, reference compound]	1251.12 µg/mL	~2720 µg/mL (≈ 10900 µM)	> 500 µg/mL	–	–	–	–	–	–	–	–	–	–	–
Cc1nc[nH]c1C(=O)NNC(=S)Nc1cccc(F)c1 [Compound 11, 4-(3-Fluorophenyl)-1-(4-methylimidazol-5-oyl)thiosemicarbazide]	95.50 µg/mL	–	–	104%	101%	99.8%	92.7%	75.6%	66%	57.8%	46.3%	~118 µg/mL (≈ 402 µM)	191 to 192 °C	–
Cc1nc[nH]c1C(=O)NNC(=S)Nc1cccc(Cl)c1 [Compound 10, 4-(3-Chlorophenyl)-1-(4-methylimidazol-5-oyl)thiosemicarbazide]	112.20 µg/mL	–	–	95.7%	94.1%	93.5%	74.6%	72.1%	69.9%	61.8%	22.1%	25.7 µg/mL (≈ 83 µM)	203 to 205 °C	–
Cc1nc[nH]c1C(=O)NNC(=S)Nc1ccc(N(C)C)cc1 [Compound 19, 1-(4-Methylimidazol-5-oyl)-4-(4-dimethyloaminophenyl)thiosemicarbazide]	112.20 µg/mL	~165 µg/mL (≈ 517 µM)	–	93.1%	91.8%	85.7%	80.8%	78.6%	68.5%	60.8%	53.3%	–	215 to 217 °C	–
Cc1cccc(NC(=S)NNC(=O)c2[nH]cnc2C)c1 [Compound 17, 1-(4-Methylimidazol-5-oyl)-4-(3-methylphenyl)thiosemicarbazide]	50.12 µg/mL	–	–	94.1%	88.7%	85.7%	74.8%	64.9%	56.5%	50%	40.7%	37.1 µg/mL (≈ 128 µM)	193 to 195 °C	–
Cc1ccccc1NC(=S)NNC(=O)c1[nH]cnc1C [Compound 16, 1-(4-Methylimidazol-5-oyl)-4-(2-methylphenyl)thiosemicarbazide]	288.40 µg/mL	~150 µg/mL (≈ 519 µM)	–	103%	102%	100%	93.8%	91.2%	79.7%	71.5%	63.4%	–	210 to 212 °C	–
Cc1nc[nH]c1C(=O)NNC(=S)Nc1ccccc1[N+](=O)[O-] [Compound 2, 1-(4-Methylimidazol-5-oyl)-4-(2-nitrophenyl)thiosemicarbazide]	181.55 µg/mL	–	–	103%	101%	96.7%	94.6%	89.7%	75.3%	53.4%	29.1%	43 µg/mL (≈ 134 µM)	215 to 217 °C	–
O=C(NNC(=S)Nc1ccc(F)cc1)c1cccs1 [Compound 1]	–	–	33.17 µg/mL	–	–	–	–	–	–	–	–	–	–	at least 15 fold
COc1ccc(NC(=S)NNC(=O)c2[nH]cnc2C)cc1OC [Compound 13, 4-(3,4-Dimethoxyphenyl)-1-(4-methylimidazol-5-oyl)thiosemicarbazide]	>500.00 µg/mL and >500 µg/mL	~175 µg/mL (≈ 522 µM)	–	107%	105%	103%	99.8%	97.5%	95.7%	94.2%	77%	–	223 to 225 °C	–
Cc1ccc(NC(=S)NNC(=O)c2[nH]cnc2C)cc1Cl [Compound 14, 4-(3-Chloro-4-methylphenyl)-1-(4-methylimidazol-5-oyl)thiosemicarbazide]	28.18 µg/mL	–	–	101%	91.5%	76.6%	67.5%	61.5%	49.3%	21.1%	10.4%	18.6 µg/mL (≈ 57.5 µM)	213 to 215 °C	–
